In US8420777B2, “Compounds that inhibit Hsp90 protein-protein interactions with IAP proteins” (University of Massachusetts, priority 2004, dated 2013):

Experiments:
[1] = test system: HL-60 and THP-1 AML cell lines; test: MTT cell viability, short versus full length peptide; assay type: cell-based; details: 4×10^5 cells
Protocol: FIGS. 29B-29D are graphs depicting killing of AML cells by Survivin peptides. FIG. 29B depicts survivin peptide activity in HL-60 cells, measured by Trypan blue exclusion. FIGS. 29C and 29D depict killing, as measured using MTT, of HL-60 (FIG. 29C) or THP-1 (FIG. 29D) cells by full length Survivin peptide (SEQ ID NO:19), Survivin peptide K79-G83 (SEQ ID NO:20), or scrambled peptide (SEQ ID NO:25 and SEQ ID NO:28).
The activity of a shorter Survivin peptide was also tested in an AML cell line. A shorter cell permeable Survivin peptide was synthesized by fusing the third α-helix of the Antennapedia carrier sequence to the amino-terminus of the Survivin peptide sequence K79-G83 (SEQ ID NO:20). […] The scrambled control peptide ([…]; SEQ ID NO:28) was ineffective (FIGS. 29C, D). For these experiments a higher number of cells was used (4×10^5) to produce a 50% killing efficiency by full length survivin peptide.

PC3 cells = test: Immunoblotting of Hsp90 client proteins; assay type: cell-based; details: 75 and 150 μM, 8 hours
Protocol: Survivin affects the stability and function of Hsp90 client proteins in tumor cells. PC3 cells were untreated or exposed to 75 and 150 μM concentrations of the survivin peptide (SEQ ID NO:19) (or control scrambled peptide; SEQ ID NO:25) for 8 hours and processed for immunoblotting against the Hsp90 client proteins survivin, AKT, and CDK-6. […] Conversely, the levels of Hsp90, Hsp70, and PCNA were not affected (FIG. 26A).

[2] = test system: U937, K562, HL60, THP1 AML cell lines; test: MTT cell viability in AML cell lines; assay type: cell-based, human
Protocol: FIG. 30 is a graph depicting killing activity of survivin K79-G83 in AML cells. The indicated human AML cell lines (U937, K562, HL60, and THP1) were incubated with scrambled (SEQ ID NO:28) or Survivin (SEQ ID NO:20) peptides and evaluated for cell viability by MTT.
The effect of the K79-G83 Survivin peptide was characterized in more detail for anti-tumor activity in AML. The K79-L87 (SEQ ID NO:19) and K79-G83 peptides (SEQ ID NO:20) were incubated with AML cells, and cell viability was measured using MTT.

[3] = test system: DU145, PC3, HeLa tumor cell lines; test: MTT colorimetric viability assay, tumor cell lines; assay type: cell-based; details: increasing concentrations, 24 hours
Protocol: FIGS. 22A and 22B compares the effect of P31 (SEQ ID NO:19) or P33 (SEQ ID NO:25) on apoptosis of tumor cell lines (FIG. 22A) and normal cell lines (FIG. 22B). The following tumor cell lines DU145 (prostate cancer, circles), PC3 (prostate cancer, triangles), or HeLa (cervical carcinoma, squares) were treated with the indicated increasing concentrations of P31 peptide (solid symbols) or control P33 peptide (open symbols), harvested after 24 hours, and analyzed for cell viability using an MTT colorimetric assay. For normal cell types (right panel), HFF (human foreskin fibroblasts, squares), HGF (human fibroblasts, triangles) or WS-1 (human epithelial cells, circles) were treated with P31 (solid symbols) or control scrambled peptide P33, harvested after 24 hours and analyzed for overall cell viability by MTT colorimetric assay. All cell lines were from ATCC.

HeLa cells [4] = test: Multiparametric flow cytometry of caspase activity and membrane integrity; assay type: cell-based, Human; details: increasing concentrations, 24 hours
Protocol: For multiparametric analysis of caspase-dependent cell death and loss of plasma membrane integrity, HeLa, MCF-7, or genetically engineered HCT116 cells (obtained from ATCC) were loaded with increasing concentrations of cell permeable control scrambled peptide or the Survivin peptide, harvested after culturing for 24 hours at 37° C., and analyzed for cell viability (propidium iodide, red channel) and active caspase-3 activity (CaspaTag™ from Intergen, Purchase, N.Y., green channel) by flow cytometry.
Cells were harvested after 24 hours of incubation with peptide and simultaneously analyzed for caspase activity by DEVDase activity (X-axis, green fluorescence) and cell membrane integrity by propidium iodide staining (Y-axis, red fluorescence). Cells in the upper right quadrant correspond to the population with elevated caspase activity and loss of cell membrane integrity (apoptotic).

survivin-Hsp90 = molecular target: T1, survivin-Hsp90 (Homo sapiens, UniProt P07900, S63T); test: ELISA inhibition of recombinant survivin binding to Hsp90
T1 construct: GST-Hsp90 (amino acids 1-732); GST (N); made in house; host or cells: E. coli
From the text: FIG. 31 is a graph depicting Hsp90 binding by Survivin peptides, measured by ELISA. Data are the mean±S.D. of two independent experiments.

HeLa cells [5] = test: Apoptosis by hypodiploid DNA content, propidium iodide flow cytometry; assay type: cell-based, Human; details: 24 hours
Protocol: For determination of apoptosis by hypodiploid DNA content, various tumor cell lines were incubated with increasing concentrations of the cell permeable control scrambled (SEQ ID NO:25) or Survivin peptide (SEQ ID NO:19), harvested after 24 hours (floaters plus attached cells) fixed in 70% ethanol, and stained with 10 μg/ml propidium iodide plus 100 μg/ml RNAse A and 0.05% Triton™ X-100 in PBS, pH 7.4. Cultures were analyzed for DNA content by flow cytometry. For colorimetric quantification of cell viability, an MTT assay was used. Various tumor cell lines were incubated with increasing concentrations of the cell permeable retro-inverso control scrambled P4 or the Survivin-specific P3 peptide, incubated for 24 hours at 37° C. washed twice with Bruffs Media, and 4,5-dimethylthiazol-2-yl)-2,5-diphenyltetrazolium bromide (MTT) (Sigma, St. Louis, Mo.) was added at 5 mg/ml. Decrease in cell viability was analyzed for loss of colorimetric absorption at OD405.
HeLa cells were incubated with the indicated increasing concentrations of the cell permeable Control (scrambled) or Survivin peptide, harvested after 24 hours at 37° C., and analyzed by hypodiploid DNA content by propidium iodide staining and flow cytometry.
HeLa cells were incubated with chemotherapeutic drugs Taxol™ (10 μM) or adriamycin (300 nM), or cell permeable control peptide or the Survivin peptide, harvested after 24 hours, and analyzed for induction of apoptosis by hypodiploid DNA content by flow cytometry.

telomerase = test: TRAP assay on Hsp90 immunoprecipitates; assay type: cell-based; details: PC3 cells treated before immunoprecipitation
Protocol: Survivin peptide treated PC3 cells were also tested for telomerase activity, which requires Hsp90 (Holt et al., Genes Dev., 13:817-26 (1999)). Cells were treated as in above, immunoprecipitated with an antibody to Hsp90, and telomerase activity was determined by TRAP assay (Kim and Wu, Nucleic Acids Res., 25:2595-7 (1997)) of the immunoprecipitates. Telomerase activity is indicated by a ladder of telomere products.

Q: Which killing efficiency [1] does the source give for “RQIKIWFQNRRMKWKKKHSSGCAFL (Synthetically generated peptide) [P31]” here?
A: 50%

Q: What about the “Hsp90 client proteins (survivin, Akt, CDK-4, CDK-6)” value (PC3 cells) of the same sequence?
A: caused disappearance of multiple Hsp90 client proteins

Q: What about the “levels of Hsp90, Hsp70, and PCNA” value (PC3 cells) of the same sequence?
A: not affected

Q: What about the “cell viability (MTT), killing of AML cell lines” value [2] of the same sequence?
A: efficiently killed all AML cell lines tested

Q: And the “cell death in cancer cell lines (MTT)” value [3]?
A: effectively induced cell death in all three cancer cell lines

Q: What about the “cell death (caspase activity and loss of plasma membrane integrity)” value (HeLa cells [4]) of the same sequence?
A: induces cell death more efficiently than scrambled control peptide

Q: And the “inhibition of binding of recombinant survivin to Hsp90” value (survivin-Hsp90)?
A: inhibited the binding of recombinant survivin to Hsp90 in a dose-dependent manner

Q: And the “cell viability reflected by hypodiploid DNA content” value (HeLa cells [5]; increasing concentrations, 37° C.)?
A: massive loss of cell viability

Q: And the “cell population with hypodiploid DNA content (apoptotic)” value (HeLa cells [5]; peptides, comparison with chemotherapeutic drugs)?
A: results in the appearance of a large cell population with hypodiploid DNA content

Q: And the telomerase activity (telomerase)?
A: abrogated telomerase activity
